{"source": "patent US10487056B2", "about": "“Small molecule androgen receptor inhibitors and methods of use thereof” (GEORGETOWN UNIVERSITY, priority 2015, dated 2019)", "assay_type_in_all_cases": "cell-based", "key": {"AR [1]": {"tested_on": "AR", "assay": "VCaP-MDVR-ARE-luc luciferase reporter assay", "conditions": "VCaP-MDVR-ARE-luc cells, range of doses, 24 hours", "procedure": "(§1) […]. Luciferase activity was measured and plotted as a percentage of control. Data represent the mean of three independent experiments with quadruplicate samples; bars, SEM. ***, p value <0.001 determined by ANOVA.\n(§2) VCaP-MDVR and 22Rv1-MDVR stably expressing ARE-luciferase construct (VCaP-MDVR-ARE-luc and 22Rv1-MDVR-ARE-luc) were generated as described above in the Materials and Methods section. […]."}, "VCaP-MDVR cells": {"tested_on": "VCaP-MDVR cells", "assay": "Cell viability (MTT), VCaP-MDVR cells", "conditions": "MDV3100, ARN-509 10 μM, SH-I-125 range, 3 days", "quoted_text": "(§6) Cell viability was measured using the MTT assay."}, "AR and AR-V7": {"tested_on": "AR and AR-V7", "assay": "Western blot of AR and AR-V7 levels in 22Rv1 cells", "conditions": "3 days, SH-I-125 at 1 μM", "procedure": "AR levels were assessed by Western blotting. β-actin was used as a loading control.\n(§3) AR and AR-V7 levels were assessed. β-actin was used as a loading control.\nas §3\nMG132 (5 μM), a known proteasome inhibitor, was added on Day 2. AR expression was assessed by Western blotting. β-actin was used as a loading control."}, "AR [2]": {"tested_on": "AR", "assay": "Immunofluorescence staining of AR in 22Rv1-MDVR cells", "conditions": "MDV3100 10 μM, ARN509 10 μM or SH-I-125 1 μM, 24 hours", "procedure": "[…]. AR and AR-V7 expression levels were assessed.\n(§4) Immunofluorescence staining was performed as described in Amin et al., Mol. Cancer Ther., 13:341-52 (2014)."}, "22Rv1 cells [3]": {"tested_on": "22Rv1 cells", "assay": "Caspase-Glo 3/7 activity assay, 22Rv1 cells", "conditions": "3 days", "procedure": "22Rv1 cells were treated with SH-I-125 (1 μM) for one, two, or three days, and caspase 3/7 activity was measured using Caspase-Glo 3/7 substrates. […] Data represent mean of three independent experiments with quadruplicate samples; bars, SEM. ***, p value <0.001 determined by ANOVA.\n(§5) Caspase 3/7 activity was measured using Caspase-Glo 3/7 substrates. Data represent mean of three independent experiments with quadruplicate samples; bars, SEM. ***, p value <0.001 determined by ANOVA.\n[…]; Madison, Wis.).\n. […] Staurosporine was used as a positive control for apoptosis induction (FIG. 10B)."}, "AR [4]": {"tested_on": "AR", "assay": "22Rv1-MDVR-ARE-luc luciferase reporter assay", "conditions": "22Rv1-MDVR-ARE-luc cells, range of doses, 24 hours", "procedure": "as §1, §2"}, "22Rv1-MDVR cells": {"tested_on": "22Rv1-MDVR cells", "assay": "Cell viability (MTT), 22Rv1-MDVR cells", "conditions": "MDV3100, ARN-509 10 μM, SH-I-125 range, 3 days", "quoted_text": "as §6"}, "22Rv1 cells [5]": {"tested_on": "22Rv1 cells", "assay": "MTT cell viability assay, 22Rv1 cells", "conditions": "3 days", "procedure": "Cells were treated in the manner indicated below for the specified period of time. MTT assay was performed as described in Amin et al., Mol. Cancer Ther., 13:341-52 (2014).\nTo determine the effects of SH-I-125 on prostate cancer cell growth, 22Rv1 cells were treated with SH-I-125 and cell viability was measured after a period of 3 days. […]. In comparison, non-tumorigenic primary prostate epithelial cells (PrEC) retained 80% viability in the presence of a similar range of doses of SH-I-125, showing that tumorigenic cells are more susceptible to the growth inhibitory properties of SH-I-125 compared to non-tumorigenic cells (FIG. 8B). […] Staurosporine was used as a positive control for cell death induction in live and dead assays (FIG. 9C)."}, "AR [6]": {"tested_on": "AR", "assay": "22Rv1-ARE-luc androgen-response element luciferase reporter assay", "conditions": "range of doses, 24 hours", "procedure": "VCaP and CWR22Rv1 (referred to as 22Rv1) cells were transduced with ARE-luciferase Cignal Lenti Pathway Reporter (Qiagen; Valencia, Calif.) and cultured as described above in the presence of 1 μg/mL puromycin. Following antibiotic selection, cells stably expressing ARE-luciferase were isolated, cloned and cultured to generate a stable ARE-reporter cell lines."}, "VCaP cells": {"tested_on": "VCaP cells", "assay": "Caspase-Glo 3/7 activity assay, VCaP cells", "conditions": "3 days", "procedure": "as §5"}, "AR [7]": {"tested_on": "AR", "assay": "Immunofluorescence staining of AR and PSA in VCaP-MDVR cells", "conditions": "DHT 1 nM, MDV3100 10 μM or SH-I-125 1 μM, 24 hours", "procedure": "AR and PSA expression levels were assessed.\nas §4"}}}
{"smiles": "CNC(=O)c1ccc(N2C(=S)N(c3cnc(C#N)c(C(F)(F)F)c3)C(=O)C23CCC3)cc1F", "note": "[ARN-509]", "values": [{"measurement": "reduction of luciferase activity", "setting": "AR [1]", "result": 50, "unit": "%"}, {"measurement": "cell growth / viability", "setting": "VCaP-MDVR cells", "result": "continued proliferation"}, {"measurement": "cellular AR and AR-V7 levels", "setting": "AR and AR-V7", "result": "no effect"}, {"measurement": "AR nuclear localization", "setting": "AR [2]", "result": "unaffected"}, {"measurement": "caspase 3/7 activity", "setting": "22Rv1 cells [3]", "result": "did not have a similar effect"}, {"measurement": "luciferase activity (AR activity)", "setting": "AR [4]", "result": "unchanged from control"}, {"measurement": "cell growth / viability", "setting": "22Rv1-MDVR cells", "result": "continued proliferation"}, {"measurement": "prevention of growth compared with SH-I-125", "setting": "22Rv1 cells [5]", "result": "significantly less effective"}, {"measurement": "inhibitory effect on ARE-luciferase activity (plateau)", "setting": "AR [6]", "result": 50, "unit": "%"}, {"measurement": "caspase 3/7 activity", "setting": "VCaP cells", "result": "did not have a similar effect"}]}
{"smiles": "CNC(=O)c1ccc(N2C(=S)N(c3ccc(C#N)c(C(F)(F)F)c3)C(=O)C2(C)C)cc1F", "note": "[MDV3100]", "values": [{"measurement": "reduction of luciferase activity", "setting": "AR [1]", "result": 50, "unit": "%"}, {"measurement": "cell growth / viability", "setting": "VCaP-MDVR cells", "result": "continued proliferation"}, {"measurement": "cellular AR and AR-V7 levels", "setting": "AR and AR-V7", "result": "no effect"}, {"measurement": "AR nuclear localization", "setting": "AR [2]", "result": "unaffected"}, {"measurement": "caspase 3/7 activity", "setting": "22Rv1 cells [3]", "result": "did not have a similar effect"}, {"measurement": "luciferase activity (AR activity)", "setting": "AR [4]", "result": "unchanged from control"}, {"measurement": "cell growth / viability", "setting": "22Rv1-MDVR cells", "result": "continued proliferation"}, {"measurement": "prevention of growth compared with SH-I-125", "setting": "22Rv1 cells [5]", "result": "significantly less effective"}, {"measurement": "caspase 3/7 activity", "setting": "VCaP cells", "result": "did not have a similar effect"}, {"measurement": "AR expression / nuclear localization", "setting": "AR [7]", "result": "AR expression was not attenuated"}, {"measurement": "PSA expression", "setting": "AR [7]", "result": "continued to inhibit PSA expression"}]}
